Experimental findings from ChEMBL document CHEMBL5728216, “Cyclopropyl fused thiazine derivatives as beta-secretase inhibitors and methods of use” (2021) are described below.

One assay concerns the target Beta-secretase 1 (Homo sapiens, UniProt P56817). The assay is described as follows: In Vitro Enzymatic FRET (Fluorescence Resonance Energy Transfer) Assays: The cDNAs for both human recombinant BACE1 and 2 with C-terminal 6-His Tags were cloned into transient protein expression vectors, which were subsequently transfected into mammalian cell lines. These recombinant proteins were further purified using Ni-NTA affinity chromatography (Qiagen). The assay buffer used in these screens was 0.05 M acetate, pH 4.5, 8% DMSO final, 100 μM genapol (which is a nonionic detergent, below its Critical Micelle Concentration). The β-secretase enzyme (0.02 nM for BACE1 and 0.64 nM for BACE2), which was pre-incubated for one hour with the test compound, typically in about 1 uL of DMSO according to a serial dilution, was added thereto. The assay was effectively started by the addition of FRET substrate (50 nM) and the combination was incubated for one hour. The FRET assay was terminated by the addition of tris buffer, which raised the pH to neutrality, and the fluorescence was determined. The FRET substrate was a peptide with commercially available fluorophore and quencher, on opposite sides of the BACE cleavage site. The specific FRET substrate used in this assay was made by Amgen in-house. […].

A further assay has as its target T1, Beta-secretase 2 (Homo sapiens, UniProt Q9Y5Z0).
T1 sequence (Q9Y5Z0 whole entry): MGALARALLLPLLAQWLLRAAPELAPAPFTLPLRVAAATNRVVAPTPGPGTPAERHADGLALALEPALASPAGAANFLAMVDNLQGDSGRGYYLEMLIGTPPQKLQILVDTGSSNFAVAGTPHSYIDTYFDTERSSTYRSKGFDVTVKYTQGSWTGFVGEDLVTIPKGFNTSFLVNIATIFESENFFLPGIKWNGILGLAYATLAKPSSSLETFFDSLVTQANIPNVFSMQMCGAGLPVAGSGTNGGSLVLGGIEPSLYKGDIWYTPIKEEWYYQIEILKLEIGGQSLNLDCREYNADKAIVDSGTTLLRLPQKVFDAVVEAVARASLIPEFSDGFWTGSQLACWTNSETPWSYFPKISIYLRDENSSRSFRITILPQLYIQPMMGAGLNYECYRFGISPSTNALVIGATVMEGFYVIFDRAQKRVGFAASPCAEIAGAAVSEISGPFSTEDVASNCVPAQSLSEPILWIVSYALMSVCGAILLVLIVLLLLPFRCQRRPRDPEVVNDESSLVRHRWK
The assay is described as follows: These recombinant proteins were further purified using Ni-NTA affinity chromatography (Qiagen).

The next assay addresses Cathepsin D (Homo sapiens, UniProt P07339). Briefly: In Vitro Enzymatic FRET Assay: Recombinant CatD was expressed in CHO cells. The assay buffer for CatD was 0.05 M citrate pH 3.5, 10% DMSO final, 5 mM CHAPS. The CatD enzyme (9 nM) was pre-incubated for one hour with inhibitors, typically in about 1 uL of DMSO according to a serial dilution, is added thereto. The assays was effectively started by the addition of different FRET substrates (20 nM for CatD) and the combination was incubated for one hour. The FRET assay was terminated with by addition of tris buffer, which raises the pH to neutrality, and the fluorescence was determined. The FRET substrate was a peptide with commercially available fluorophore and quencher, on opposite sides of the CatD cleavage site. The CatD substrate peptide sequence was based on sequence #1 of Table 1 from Gulnik et al., FEBS Lett. 413(2):379-384 (1997). Proteolytic cleavage of the FRET substrate released quenching of fluorescence (CatD excitation 500 nm and emission 580 nm). Type of assay: cell-based.

Sequence of Cathepsin D (P07339 65-162 limits assumed): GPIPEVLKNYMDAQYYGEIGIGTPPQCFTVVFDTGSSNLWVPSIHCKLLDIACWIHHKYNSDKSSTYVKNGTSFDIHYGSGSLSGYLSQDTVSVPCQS
Sequence of Cathepsin D (P07339 169-412 limits assumed): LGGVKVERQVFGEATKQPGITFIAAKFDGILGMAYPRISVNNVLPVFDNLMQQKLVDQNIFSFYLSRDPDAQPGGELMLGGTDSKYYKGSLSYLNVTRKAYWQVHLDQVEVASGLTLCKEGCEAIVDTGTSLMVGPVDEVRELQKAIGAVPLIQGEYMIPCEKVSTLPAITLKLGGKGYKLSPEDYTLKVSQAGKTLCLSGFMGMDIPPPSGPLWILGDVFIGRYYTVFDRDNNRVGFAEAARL
Sequence of Beta-secretase 1 (P56817 whole entry): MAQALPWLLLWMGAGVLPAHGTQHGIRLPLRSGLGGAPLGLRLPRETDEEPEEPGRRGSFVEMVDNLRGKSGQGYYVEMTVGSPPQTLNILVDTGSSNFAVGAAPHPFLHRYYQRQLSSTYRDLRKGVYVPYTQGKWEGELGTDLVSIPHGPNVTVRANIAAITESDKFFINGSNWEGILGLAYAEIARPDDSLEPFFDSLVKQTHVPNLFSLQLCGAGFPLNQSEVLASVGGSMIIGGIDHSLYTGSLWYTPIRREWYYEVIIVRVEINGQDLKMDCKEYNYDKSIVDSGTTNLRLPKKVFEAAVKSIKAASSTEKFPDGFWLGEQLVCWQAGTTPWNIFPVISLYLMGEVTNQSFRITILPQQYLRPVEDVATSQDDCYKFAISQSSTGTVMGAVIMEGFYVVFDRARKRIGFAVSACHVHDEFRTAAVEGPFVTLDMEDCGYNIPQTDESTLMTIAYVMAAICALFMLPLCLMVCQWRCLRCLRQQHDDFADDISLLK

A word on the IC50: it is the concentration needed to halve the response being measured. Consider `COC[C@]12CC1[C@@](C)(c1cc(C#Cc3ncc(Cl)cc3C)ccc1F)N=C(N)S2` (stereo partly drawn), for which the values for the concentration for half-maximal inhibition (IC50) at Beta-secretase 1, at Beta-secretase 2 and at Cathepsin D were 129 nM, 613 nM and greater than 400000 nM, respectively.
